Two compounds from US20250241901A1, “ACTIVATION OF MNRR1 / CHCHD2 AS A THERAPEUTIC TARGET FOR MITOCHONDRIA ASSOCIATED DISORDERS” (Wayne State University, priority 2024, published 2025) can be followed below.

Holding throughout (assay type): cell-based, human
The test system of assay [1] is MNRR1-promoter driven luciferase reporter. Description: High throughput screen with MNRR1-promoter driven luciferase reporter cell lines. Particulars: list of 2400 FDA-approved drugs, small molecules and natural products. On the procedure:
Cell lines, culture, and Z′ determination: Stable cell line generation: HEK293 or MDA-MB-468 cells were transfected with pGL4-MNNR1-luciferase, selected with 0.5 μg/mL (for 293) or 1 μg/mL (for 468) puromycin for 2 weeks, and subcloned by limiting dilution. MDA-MB-468-MNRR1-luc and HEK293-MNRR1-luc cells from multiple clones (5000-7500 cells) were plated in 100 μL of complete medium overnight and treated with 10 μM of each compound from the library for 24 h. The medium was aspirated from each well to a volume of 25 μL, and 25 μL Bright Glo (Promega, Madison, WI) luciferase detection reagent was added to each well 10 min prior to luminescent determination with a FlexStation 3 Multimode Microplate Reader (Molecular Devices, San Jose, CA). […] The Z′ factor is a value used to identify strong candidates and can be calculated using a previously described method. […]
MicroSource Spectrum Collection: Despite the low Z′ values for MDA-MB-468-MNRR1-luc and HEK293-MNRR1-luc, pilot screens were performed with both using the MicroSource Spectrum Collection (Gaylordsville, CT). […] For HTS, cells were plated, treated, and measured for luciferase expression as described for clone identification; all HTS compounds were added to a final concentration of 10 μM and MNRR1-luciferase expression was measured after 24 h. […]
On the technique in general: A reporter such as luciferase makes a cellular process visible.

For assay [2], the system named is MELAS patient fibroblasts. The experiment in a line: Heteroplasmy in MELAS patient fibroblasts. Particulars: low heteroplasmy levels (<50%). Here is the method: Restriction Enzyme Digestion: DNA was analyzed for the MELAS mutation as described previously. The A→G mutation creates a new Haelll site at position 3243 that can be amplified by PCR using primers corresponding to the light-strand positions 3116 to 3134 and to the heavy-strand positions 3353 to 3333. Equal amounts of the resulting products were digested with the restriction enzyme Haelll (New England Biolabs) and electrophoresed on a 2.5% agarose gel.

The test system of assay [3] is MELAS patient fibroblasts. Description: Oxygen consumption and mitochondrial ATP rate in MELAS patient fibroblasts. Particulars: 10 μM, 48 h. On the procedure: FIGS. 8A-8D: MNRR1 activation using tizoxanide enhances mitochondrial function, mitophagy, and protects from LPS-induced inflammation in MELAS patient fibroblasts. FIG. 8A: Equal amounts of lysates from MELAS patient fibroblast (MF 1, 2, or 3) lysates treated with vehicle (DMSO) or tizoxanide (10 μM) for 48 h were separated on an SDS-PAGE gel and probed for LC3B, PGC1a, MNRR1, MTCO2, TOM20, and phospho-ubiquitin (S65) levels. GAPDH orTubulin was probed as a loading control. FIG. 8B: Oxygen consumption measured from MELAS patient fibroblasts treated with vehicle (DMSO) or tizoxanide (10 μM) for 48 h (n=4 biological replicates, mean±SE). FIG. 8C: Mitochondrial ATP rate measured in MELAS patient fibroblasts treated with vehicle (DMSO) or tizoxanide (10 μM) for 48 h (n=4 biological replicates, mean±SE). FIG. 8D: Heatmap representation of ROS and TNFα transcript levels from MELAS patient fibroblasts treated with vehicle (DMSO), LPS (DMSO+500 ng/mL LPS), or LPS plus tizoxanide (10 μM tizoxanide+500 ng/mL LPS) for 24 h (n=4 biological replicates). […]
Intact cellular oxygen consumption and measurement of ATP: Cellular oxygen consumption was measured with a Seahorse XFe24 Bioanalyzer (Agilent). Cells were plated at a concentration of 3.5×10^4 per well a day prior to treatment and basal oxygen consumption was measured 48 h after treatments, as described. […]

For assay [4], the system named is MELAS patient fibroblasts. The experiment in a line: LPS-induced ROS and TNF levels in MELAS patient fibroblasts. To be noted: 10 μM + 500 ng/mL LPS, 24 h. On the procedure: FIGS. 8A-8D: MNRR1 activation using tizoxanide enhances mitochondrial function, mitophagy, and protects from LPS-induced inflammation in MELAS patient fibroblasts. FIG. 8A: Equal amounts of lysates from MELAS patient fibroblast (MF 1, 2, or 3) lysates treated with vehicle (DMSO) or tizoxanide (10 μM) for 48 h were separated on an SDS-PAGE gel and probed for LC3B, PGC1a, MNRR1, MTCO2, TOM20, and phospho-ubiquitin (S65) levels. GAPDH orTubulin was probed as a loading control. FIG. 8B: Oxygen consumption measured from MELAS patient fibroblasts treated with vehicle (DMSO) or tizoxanide (10 μM) for 48 h (n=4 biological replicates, mean±SE). FIG. 8C: Mitochondrial ATP rate measured in MELAS patient fibroblasts treated with vehicle (DMSO) or tizoxanide (10 μM) for 48 h (n=4 biological replicates, mean±SE). FIG. 8D: Heatmap representation of ROS and TNFα transcript levels from MELAS patient fibroblasts treated with vehicle (DMSO), LPS (DMSO+500 ng/mL LPS), or LPS plus tizoxanide (10 μM tizoxanide+500 ng/mL LPS) for 24 h (n=4 biological replicates). In all figures, * indicates p<0.05, ** indicates p<0.005.
ROS measurements: Total cellular ROS measurements were performed with CM-H2DCFDA (Life Technologies). […] Cells were washed twice in phosphate buffered saline and analyzed for fluorescence on a BioTek Synergy H1 Microplate Reader (Agilent).

For the compound `CC(=O)Oc1ccccc1C(=O)Nc1ncc([N+](=O)[O-])s1` [nitazoxanide, Nitazoxanide], the “outcome of screen for MNRR1 activators” value in assay [1] is “identified as an MNRR1 activator”.

With `O=C(Nc1ncc([N+](=O)[O-])s1)c1ccccc1O` [tizoxanide, Tizoxanide], in assay [2], the shift of heteroplasmy result is “do not show a shift of heteroplasmy”. In addition, in assay [3], the OCR entry was “enhanced” and the “mitochondrial ATP levels” value was “enhanced”. Besides, in assay [4], the “LPS-induced pro-inflammatory response (ROS and TNF levels)” value is on record as “blocked”.
